Values after ≈ are worked out from the molar mass of the structure shown. Where a SMILES comes first, the peptide text is derived from it. [ ]: non-standard residue; d: D form. Gly(N(CH2)2(3-indolyl)) = O=C(O)CNCCc1c[nH]c2ccccc12; Gly(N-CH2CH2-imidazol-4-yl) = O=C(O)CNCCc1c[nH]cn1; Nspe = C[C@H](NCC(=O)O)c1ccccc1; Nlys = NCCCCNCC(=O)O
How the values were obtained:
[1] = tested on: E. coli ATCC25922; settings: for antimicrobial activity against E. coli (in words): compared to Peptoid 1; for antimicrobial activity (in words): E. coli and S. aureus, compared to Peptoid 1, parent peptoid or TFA salt as stated
Protocol: To measure the antimicrobial activity of the peptoids synthesized in Example 1, an E. coli ATCC25922 strain as gram-negative bacteria and an S. aureus KCTC25923 strain as gram-positive bacteris, were treated with the peptoids, followed by measuring the minimum inhibitory concentration (MIC). Peptoids 1 and 2 are antimicrobial peptoids known in the art, and used as controls for comparing antimicrobial activity with a novel peptoid.
Specifically, the S. aureus KCTC25923 or E. coli ATCC25922 strain was inoculated into a Mueller Hinton Broth (MHB2) liquid medium in which cations had been adjusted in the medium, cultured at 37° C. for 18 hours, subcultured, and then incubated for 4 hours. Afterward, for each bacterial strain, an optical density (OD, 0.001) was adjusted so that the bacterial count became 2×10^5 to 5×10^5 colony-forming units (CFU) per mL, which was then diluted with a MHB2 liquid medium containing 0.02% bovine serum albumin and 0.001% acetic acid, and dispensed at 100 μL into a 96-well microplate. Using sterile water, a peptoid stock 40 times stronger than a concentration to be tested was subjected to two-fold serial dilution and assessed at six different concentrations, and the maximum value of the peptoid concentrations was 25 μM. Subsequently, the plate was incubated at 37° C. for 24 hours. Afterward, optical density (OD) values at 600 nm were measured using a microplate reader (Bio-Rad).
Each MIC value was determined as the average value of a value obtained through three independent experiments.
Referring to Table 22, to measure the antimicrobial activity of the peptoids synthesized in Example 3, an MIC was measured by treating gram-negative bacteria, that is, the E. coli ATCC25922 strain, and gram-positive bacteria, that is, the S. aureus ATCC25923 strain, with the peptoids. Here, Peptoid 1 is a conventionally known antimicrobial peptoid, and Omiganan is a derivative of indolicidin, which is an antimicrobial peptide, under clinical development, and was used as a control for comparing antimicrobial activity with the novel peptoid.

[2] = tested on: red blood cells; assay: Hemolysis assay; assay type: cell-based, Sprague-Dawley mouse
Protocol: To confirm cytotoxicity by the hemolytic activity of each peptoid synthesized in Example 1, hemolysis analysis was performed. The used blood was collected from a 13-week-old male Sprague-Dawley […] in a tube containing 158 UPS sodium heparin for preventing coagulation, and centrifuged at 4° C. for 10 minutes at 1,000 rpm. Afterward, the plasma was carefully removed, red blood cells were washed with phosphate-buffered saline (PBS: a mixed solution of 35 mM phosphate-buffered solution/150 mM NaCl, pH 7.4) three times and centrifuged at 1,000 rpm for 10 minutes. A 10% (v/v) red blood cell solution diluted in PBS was dispensed at 150 μL into a 96-well plate (microtiter plate), a peptoid solution was added at 50 μL, and 1% Triton X-100 was added. Afterward, the red blood cells were incubated at 37° C. for 1 hour, and the incubated 96-well plate was centrifuged at 1,000 rpm for 15 minutes. A supernatant was obtained and transferred to a new 96-well plate at 150 μL, and absorbance was measured using a spectrophotometer at 540 nm. Percent hemolysis may be calculated by the following Equation 1, and the corresponding results are shown in Tables 11 to 13. % Hemolysis=(A−C)/(B−C)×100 [Equation 1] In Equation 1, A is the absorbance of the peptoid solution at 540 nm, B is the absorbance of the 0.1% Triton X-100 at 540 nm, and C is the absorbance of the PBS solution at 540 nm.

C[C@@H](c1ccccc1)N(CC(=O)N(CCCCN)CC(=O)N(CC(=O)N(CC(=O)N(CCCCN)CC(=O)N(CC(=O)N(CC(=O)N(CCCCN)CC(=O)N(CC(=O)N(CC(=O)N(CCc1c[nH]c2ccccc12)CC(N)=O)[C@@H](C)c1ccccc1)[C@@H](C)c1ccccc1)[C@@H](C)c1ccccc1)[C@@H](C)c1ccccc1)[C@@H](C)c1ccccc1)[C@@H](C)c1ccccc1)C(=O)CN(C(=O)CN(CCCCN)C(=O)CNCCc1c[nH]c2ccccc12)[C@@H](C)c1ccccc1 [Peptoid 5, H-NhTrp-NLys-Nspe-Nspe-NLys-Nspe-Nspe-NLys-Nspe-Nspe-NLys-Nspe-Nspe-NhTrp-NH2] (H-[Gly(N(CH2)2(3-indolyl))][Nlys][Nspe][Nspe][Nlys][Nspe][Nspe][Nlys][Nspe][Nspe][Nlys][Nspe][Nspe][Gly(N(CH2)2(3-indolyl))]-NH2)
antimicrobial activity against E. coli (in words) [1]: lost antimicrobial activities against E. coli

C[C@@H](c1ccccc1)N(CC(N)=O)C(=O)CN(C(=O)CN(CCCCN)C(=O)CN(C(=O)CN(C(=O)CN(CCCCN)C(=O)CN(C(=O)CN(C(=O)CN(CCCCN)C(=O)CN(C(=O)CN(C(=O)CN(CCCCN)C(=O)CN(CCc1c[nH]c2ccccc12)C(=O)CNCCc1c[nH]c2ccccc12)[C@@H](C)c1ccccc1)[C@@H](C)c1ccccc1)[C@@H](C)c1ccccc1)[C@@H](C)c1ccccc1)[C@@H](C)c1ccccc1)[C@@H](C)c1ccccc1)[C@@H](C)c1ccccc1 [Peptoid 6, H-NhTrp-NhTrp-NLys-Nspe-Nspe-NLys-Nspe-Nspe-NLys-Nspe-Nspe-NLys-Nspe-Nspe-NH2]
antimicrobial activity against E. coli (in words) [1]: lost antimicrobial activities against E. coli

C[C@@H](c1ccccc1)N(CC(=O)N(CCCCN)CC(=O)N(CC(=O)N(CC(=O)N(CCCCN)CC(=O)N(CCc1c[nH]c2ccccc12)CC(=O)N(CCc1c[nH]c2ccccc12)CC(=O)N(CCCCN)CC(=O)N(CCc1c[nH]c2ccccc12)CC(=O)N(CCc1c[nH]c2ccccc12)CC(N)=O)[C@@H](C)c1ccccc1)[C@@H](C)c1ccccc1)C(=O)CN(C(=O)CNCCCCN)[C@@H](C)c1ccccc1 [Peptoid 19] (H-[Nlys][Nspe][Nspe][Nlys][Nspe][Nspe][Nlys][Gly(N(CH2)2(3-indolyl))][Gly(N(CH2)2(3-indolyl))][Nlys][Gly(N(CH2)2(3-indolyl))][Gly(N(CH2)2(3-indolyl))]-NH2)
Hmax (100 μM) [2]: 101.5 ± 1.3% | HC10 ([2]; Tables 11-13, concentration that induces hemolysis in 10% red blood cells): 3.8 µM | HC50 ([2]; Tables 11-13, concentration that induces hemolysis in 50% red blood cells): 12.5 µM | MIC E. coli ATCC25922 ([1]; Tables 11-13, 24 hours at 37° C., maximum concentration 25 μM): 12.5 µM (≈ 24.7 µg/mL)

C[C@@H](c1ccccc1)N(CC(N)=O)C(=O)CN(CCCCN)C(=O)CN(CCCCN)C(=O)CN(C(=O)CN(C(=O)CN(CCCCN)C(=O)CN(C(=O)CN(C(=O)CN(CCCCN)C(=O)CN(CCc1c[nH]c2ccccc12)C(=O)CN(CCc1c[nH]c2ccccc12)C(=O)CNCCc1c[nH]cn1)[C@@H](C)c1ccccc1)[C@@H](C)c1ccccc1)[C@@H](C)c1ccccc1)[C@@H](C)c1ccccc1 [Peptoid 72, H-NHis-NhTrp-NhTrp-NLys-Nspe-Nspe-NLys-Nspe-Nspe-NLys-NLys-Nspe-NH2] (H-[Gly(N-CH2CH2-imidazol-4-yl)][Gly(N(CH2)2(3-indolyl))][Gly(N(CH2)2(3-indolyl))][Nlys][Nspe][Nspe][Nlys][Nspe][Nspe][Nlys][Nlys][Nspe]-NH2)
cytotoxicity against red blood cells / hemolysis (in words) [2]: improved in toxicity | antimicrobial activity (in words) [1]: retained antimicrobial activity

C[C@@H](c1ccccc1)N(CC(N)=O)C(=O)CN(CCCCN)C(=O)CN(CCCCN)C(=O)CN(C(=O)CN(C(=O)CN(CCCCN)C(=O)CN(C(=O)CN(C(=O)CN(CCc1c[nH]cn1)C(=O)CN(CCc1c[nH]c2ccccc12)C(=O)CN(CCc1c[nH]c2ccccc12)C(=O)CNCCCCN)[C@@H](C)c1ccccc1)[C@@H](C)c1ccccc1)[C@@H](C)c1ccccc1)[C@@H](C)c1ccccc1 [Peptoid 73, H-NLys-NhTrp-NhTrp-NHis-Nspe-Nspe-NLys-Nspe-Nspe-NLys-NLys-Nspe-NH2] (H-[Nlys][Gly(N(CH2)2(3-indolyl))][Gly(N(CH2)2(3-indolyl))][Gly(N-CH2CH2-imidazol-4-yl)][Nspe][Nspe][Nlys][Nspe][Nspe][Nlys][Nlys][Nspe]-NH2)
cytotoxicity against red blood cells / hemolysis (in words) [2]: improved in toxicity | antimicrobial activity (in words) [1]: retained antimicrobial activity

C[C@@H](c1ccccc1)N(CC(N)=O)C(=O)CN(CCCCN)C(=O)CN(CCCCN)C(=O)CN(C(=O)CN(C(=O)CN(CCc1c[nH]cn1)C(=O)CN(C(=O)CN(C(=O)CN(CCCCN)C(=O)CN(CCc1c[nH]c2ccccc12)C(=O)CN(CCc1c[nH]c2ccccc12)C(=O)CNCCCCN)[C@@H](C)c1ccccc1)[C@@H](C)c1ccccc1)[C@@H](C)c1ccccc1)[C@@H](C)c1ccccc1 [Peptoid 74, H-NLys-NhTrp-NhTrp-NLys-Nspe-Nspe-NHis-Nspe-Nspe-NLys-NLys-Nspe-NH2] (H-[Nlys][Gly(N(CH2)2(3-indolyl))][Gly(N(CH2)2(3-indolyl))][Nlys][Nspe][Nspe][Gly(N-CH2CH2-imidazol-4-yl)][Nspe][Nspe][Nlys][Nlys][Nspe]-NH2)
cytotoxicity against red blood cells / hemolysis (in words) [2]: improved in toxicity | antimicrobial activity (in words) [1]: retained antimicrobial activity

C[C@@H](c1ccccc1)N(CC(N)=O)C(=O)CN(CCc1c[nH]cn1)C(=O)CN(CCCCN)C(=O)CN(C(=O)CN(C(=O)CN(CCCCN)C(=O)CN(C(=O)CN(C(=O)CN(CCCCN)C(=O)CN(CCc1c[nH]c2ccccc12)C(=O)CN(CCc1c[nH]c2ccccc12)C(=O)CNCCCCN)[C@@H](C)c1ccccc1)[C@@H](C)c1ccccc1)[C@@H](C)c1ccccc1)[C@@H](C)c1ccccc1 [Peptoid 76, H-NLys-NhTrp-NhTrp-NLys-Nspe-Nspe-NLys-Nspe-Nspe-NLys-NHis-Nspe-NH2] (H-[Nlys][Gly(N(CH2)2(3-indolyl))][Gly(N(CH2)2(3-indolyl))][Nlys][Nspe][Nspe][Nlys][Nspe][Nspe][Nlys][Gly(N-CH2CH2-imidazol-4-yl)][Nspe]-NH2)
cytotoxicity against red blood cells / hemolysis (in words) [2]: improved in toxicity | antimicrobial activity (in words) [1]: retained antimicrobial activity

C[C@@H](c1ccccc1)N(CC(=O)N(CCc1c[nH]cn1)CC(=O)N(CCc1c[nH]c2ccccc12)CC(=O)N(CCc1c[nH]c2ccccc12)CC(N)=O)C(=O)CN(CCCCN)C(=O)CN(CCCCN)C(=O)CN(C(=O)CN(C(=O)CN(CCCCN)C(=O)CN(C(=O)CN(C(=O)CNCCCCN)[C@@H](C)c1ccccc1)[C@@H](C)c1ccccc1)[C@@H](C)c1ccccc1)[C@@H](C)c1ccccc1 [Peptoid 77, H-NLys-Nspe-Nspe-NLys-Nspe-Nspe-NLys-NLys-Nspe-NHis-NhTrp-NhTrp-NH2] (H-[Nlys][Nspe][Nspe][Nlys][Nspe][Nspe][Nlys][Nlys][Nspe][Gly(N-CH2CH2-imidazol-4-yl)][Gly(N(CH2)2(3-indolyl))][Gly(N(CH2)2(3-indolyl))]-NH2)
cytotoxicity against red blood cells / hemolysis (in words) [2]: improved toxicity | antimicrobial activity (in words) [1]: reduced antimicrobial activity

C[C@@H](c1ccccc1)N(CC(=O)N(CCCCN)CC(=O)N(CCc1c[nH]c2ccccc12)CC(=O)N(CCc1c[nH]c2ccccc12)CC(N)=O)C(=O)CN(CCc1c[nH]cn1)C(=O)CN(CCCCN)C(=O)CN(C(=O)CN(C(=O)CN(CCCCN)C(=O)CN(C(=O)CN(C(=O)CNCCCCN)[C@@H](C)c1ccccc1)[C@@H](C)c1ccccc1)[C@@H](C)c1ccccc1)[C@@H](C)c1ccccc1 [Peptoid 78, H-NLys-Nspe-Nspe-NLys-Nspe-Nspe-NLys-NHis-Nspe-NLys-NhTrp-NhTrp-NH2] (H-[Nlys][Nspe][Nspe][Nlys][Nspe][Nspe][Nlys][Gly(N-CH2CH2-imidazol-4-yl)][Nspe][Nlys][Gly(N(CH2)2(3-indolyl))][Gly(N(CH2)2(3-indolyl))]-NH2)
cytotoxicity against red blood cells / hemolysis (in words) [2]: improved in toxicity | antimicrobial activity (in words) [1]: retained antimicrobial activity

From US20240226228A1, “ANTIMICROBIAL PEPTOID HAVING IMPROVED SELECTIVITY AND ANTIMICROBIAL COMPOSITION COMPRISING SAME” (priority 2021, published 2024)
